# Laboratory results reported in article PMC6273487, “Characterisation of the Broadly-Specific O-Methyl-transferase JerF from the Late Stages of Jerangolid Biosynthesis” (Molecules, 2016).
# Target: T1, JerF (Sorangium cellulosum, UniProt A1YBT9)
# T1 construct: codon-optimised full-length gene in pCOLD-I, N-terminal His6 tag, expressed in E. coli BL21 (DE3), cell-free extract (not purified)
# Assay: HPLC-MS of O-methylated product after bioconversion with cell-free extract
# Format: biochemical
# Settings: 5 mM MgCl2, 0.25 mM substrate
# T1 sequence (A1YBT9 entry or part of it): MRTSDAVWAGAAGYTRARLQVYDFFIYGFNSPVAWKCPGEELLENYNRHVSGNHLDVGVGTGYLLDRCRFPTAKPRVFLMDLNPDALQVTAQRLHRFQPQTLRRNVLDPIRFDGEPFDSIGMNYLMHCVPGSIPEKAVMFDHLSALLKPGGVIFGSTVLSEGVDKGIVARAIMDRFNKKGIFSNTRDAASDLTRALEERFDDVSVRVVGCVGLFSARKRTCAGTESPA
Compound,"HPLC-MS of O-methylated product after bioconversion with cell-free extract (SAM tosylate 0.97 mM, 40 mM Tris HCl, pH 8.8, 28 °C, 16 h, empty-vector and heat-denatured lysate controls run)","HPLC-MS of O-methylated product after bioconversion with cell-free extract (SAM tosylate 4.18 mM, 25 mM HEPES, pH 7.5, 28 °C, 20 h)"
"C/C=C/C1CC(=O)C(C)C(=O)O1 (racemic) [rac-14d, (E)-3-Methyl-6-(prop-1-en-1-yl)dihydro-2H-pyran-2,4(3H)-dione]",rac-14d was almost completely converted into the respective O-methylated product mixture rac-15d,
"CC(C)/C=C/C1CC(=O)C(C)C(=O)O1 (racemic) [rac-14e, (E)-3-Methyl-6-(3-methylbut-1-en-1-yl)dihydro-2H-pyran-2,4(3H)-dione]",,"Full conversion was reproducibly obtained for compounds rac-14b, rac-14c, rac-14e and rac-14f"
